Laboratory results from PMC13303085, “Succinate dehydrogenase loss suppresses pyrimidine biosynthesis via succinate-mediated inhibition of aspartate transcarbamylase” (Nature metabolism, 2026).

Tests used:
[1] = molecular target: T1, aspartate transcarbamylase (ATCase) domain of CAD (Homo sapiens, UniProt P27708); experiment: biochemical
T1 sequence (P27708 1915-2225): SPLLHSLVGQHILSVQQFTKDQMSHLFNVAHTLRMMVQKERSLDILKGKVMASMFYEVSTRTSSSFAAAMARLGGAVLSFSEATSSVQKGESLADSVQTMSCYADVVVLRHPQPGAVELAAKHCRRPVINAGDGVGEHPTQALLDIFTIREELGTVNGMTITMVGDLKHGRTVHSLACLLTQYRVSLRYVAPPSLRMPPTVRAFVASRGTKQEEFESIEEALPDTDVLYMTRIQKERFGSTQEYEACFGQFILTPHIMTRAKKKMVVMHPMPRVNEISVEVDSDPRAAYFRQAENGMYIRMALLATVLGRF

[2] = molecular target: T1, aspartate transcarbamylase (ATCase) domain of CAD; experiment: initial-rate kinetics of purified MBP-ATCase, aspartate titration in excess CP; type: biochemical; parameters: residues 1,915–2,225 of human CAD, N-terminal 6×His-tagged MBP fusion (MBP-ATCase)
[3] = molecular target: T1, aspartate transcarbamylase (ATCase) domain of CAD; experiment: colorimetric carbamoyl-aspartate formation assay with purified MBP-ATCase, CP titration at […] aspartate; type: biochemical; parameters: residues 1,915–2,225 of human CAD, N-terminal 6×His-tagged MBP fusion (MBP-ATCase)
[4] = molecular target: T1, aspartate transcarbamylase (ATCase) domain of CAD; experiment: initial-rate kinetics of purified MBP-ATCase, CP titration in excess aspartate (Michaelis-Menten); type: biochemical; parameters: residues 1,915–2,225 of human CAD, N-terminal 6×His-tagged MBP fusion (MBP-ATCase)
From the text: initial-rate kinetics of purified MBP-ATCase, CP titration in excess aspartate (Michaelis-Menten) on aspartate transcarbamylase (ATCase) domain of CAD | relative initial enzymatic rates of MBP-ATCase in excess aspartate and a titration of CP.

[5] = molecular target: the molecule itself; experiment: SEC; affinity-purified MBP-ATCase on Superdex 200 16/600 in 20 mM Tris-HCl pH 7.2, 100 mM NaCl, 2% glycerol, 0.2 mM TCEP; trimer

## O=C(O)CCC(=O)O [succinate]
[1]
  IC50: 1350 µM

## N[C@@H](CC(=O)O)C(=O)O [aspartate]
[2]
  initial-rate kinetics of purified MBP-ATCase, aspartate titration in excess CP: we measured initial enzymatic rates of MBP-ATCase in excess CP, a titration of aspartate, and three concentrations of succinate

## O=C(O)C[C@H](NC(=O)CP(=O)(O)O)C(=O)O [PALA]
[3]
  colorimetric carbamoyl-aspartate formation assay with purified MBP-ATCase, CP ti: initial rates were dose-dependently decreased with nanomolar doses of the classical ATCase inhibitor, PALA (N-phosphonacetyl-L-aspartate)

## NC(=O)OP(=O)(O)O [carbamoyl phosphate]
[4]
  initial-rate kinetics of purified MBP-ATCase, CP titration in excess aspartate: relative initial enzymatic rates of MBP-ATCase in excess aspartate and a titration of CP. This showed saturation kinetics

B1: ATCase domain of human CAD fused N-terminally to a 6×His-tagged maltose binding protein (MBP-ATCase) (domain or fragment, UniProt P27708 1915-2225, looked up)
chain: T1 sequence (P27708 1915-2225)
notes: Order of the construct: 6×His, SSG linker, MBP, two SSG linkers, TEV protease site, GS linker, CAD 1915-2225; in pET-28a(+); also called 6×His-tagged MBP-ATCase; human ATCase; source: E. coli BL21, autoinduction medium, purified (HisPur cobalt resin, SEC on Superdex 200); not shown: His6, N-terminal, kept; MBP, N-terminal, kept
[5]
  stoichiometry N: 3
